Measured values taken from patent US9611256B2, “Alkyne-, azide- and triazole-containing flavonoids as modulators for multidrug resistance in cancers” (The Hong Kong Polytechnic University, priority 2012, dated 2017).
Where “and” joins values, the source holds several entries; their conditions need not be identical. Equal values may be shown once. Read-outs that look alike come from different tables or passages of the source.

Columns and labels:
[1] = tested on: P-gp, MRP1 and BCRP transporters; test: Selectivity for ABC transporters, determined from % of reversion (Tables 1 and 2); assay type: cell-based, human; conditions: determined from % of reversion in Table 1 (>80% strongly, 79-50% moderately selective)
How it was run: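 Compounds are grouped as acting on one, two or all three of P-gp, MRP1 and BCRP. The basis is percent reversion: 79-50% means moderate selectivity, above 80% strong selectivity.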

BCRP [2] = target: T1, BCRP (Homo sapiens, UniProt Q9UNQ0); test: Reversal of BCRP-mediated topotecan resistance in HEK293/R2 cells (cell proliferation assay); conditions: triazole dimers, anti vs syn; cell line not given (Table 1)
T1 sequence (Q9UNQ0 1-655): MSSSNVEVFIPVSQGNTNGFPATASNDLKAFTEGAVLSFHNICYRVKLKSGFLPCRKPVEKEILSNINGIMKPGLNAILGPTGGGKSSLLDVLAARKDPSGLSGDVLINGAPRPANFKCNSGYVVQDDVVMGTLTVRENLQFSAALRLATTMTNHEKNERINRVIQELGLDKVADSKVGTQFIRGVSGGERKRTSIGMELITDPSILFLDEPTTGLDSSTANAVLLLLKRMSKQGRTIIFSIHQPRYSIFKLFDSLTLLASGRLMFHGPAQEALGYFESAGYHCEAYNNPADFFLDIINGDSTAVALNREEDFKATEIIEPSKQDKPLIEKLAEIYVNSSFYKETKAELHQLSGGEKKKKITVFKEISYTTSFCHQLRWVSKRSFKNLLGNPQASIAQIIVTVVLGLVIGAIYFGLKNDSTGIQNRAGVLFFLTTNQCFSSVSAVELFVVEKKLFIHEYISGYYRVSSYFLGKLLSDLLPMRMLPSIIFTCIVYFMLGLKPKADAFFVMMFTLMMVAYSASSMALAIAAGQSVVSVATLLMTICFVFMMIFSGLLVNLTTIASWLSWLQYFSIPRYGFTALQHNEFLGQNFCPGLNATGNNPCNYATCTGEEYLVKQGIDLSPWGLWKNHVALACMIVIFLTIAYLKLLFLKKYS

P-gp [3] = target: T2, P-gp (Homo sapiens, UniProt P08183); conditions: mouse (L929 or Raw264.7) and human (LCC6MDR), 5 days
in vitro = conditions: mouse
P-gp [4] = target: T2, P-gp; test: cell-based
MRP1 [5] = target: T3, MRP1 (Homo sapiens, UniProt P33527); test: Reversal of MRP1-mediated DOX resistance in 2008/MRP1 cells (cell proliferation assay); conditions: for DOX resistance of 2008/MRP1 Therapeutic index: (IC50 towards L929 or Raw264.7)/(EC50 for reversing drug resistance)
BCRP [6] = target: T1, BCRP; test: Reversal of BCRP-mediated topotecan resistance in MCF7-MX100 cells (cell proliferation assay); conditions: (IC50 towards L929 or Raw264.7)/(EC50 for reversing drug resistance)
MRP1 [7] = target: T3, MRP1; test: Reversal of MRP1-mediated vincristine resistance in 2008/MRP1 cells (cell proliferation assay); conditions: (IC50 towards L929 or Raw264.7)/(EC50 for reversing drug resistance)
2008/P cells = test: Cell proliferation assay, 2008/P; assay type: cell-based; conditions: Homo sapiens; without modulator; read-out: IC50 of anticancer drug, parental 2008/P cells
2008/MRP1 = test: Cell proliferation assay, 2008/MRP1
L929 cells = test: Cytotoxicity assay (MTS) towards L929 normal fibroblasts; conditions: read-out: Cytotoxicity (IC50, μM) L929; L929 mouse fibroblasts
[8] = as above; conditions: mouse, L929 fibroblasts
LCC6MDR = test: Cell proliferation assay without modulator, LCC6MDR; assay type: cell-based, human
LCC6 cells = test: Cell proliferation assay without modulator, LCC6; assay type: cell-based; conditions: Homo sapiens, LCC-6, read-out: IC50 of anticancer drug, parental LCC6 cells
HEK293/R2 = test: Cell proliferation assay without modulator, HEK293/R2; assay type: cell-based; conditions: Homo sapiens, read-out: IC50 of anticancer drug, HEK293/R2
[9] = tested on: HEK293/pcDNA3.1 cell line; test: Cell proliferation assay without modulator, HEK293/pcDNA3.1; assay type: cell-based; conditions: Homo sapiens, read-out: IC50 of anticancer drug, wild type HEK293/pcDNA3.1
MCF7-MX100 = test: Cell proliferation assay without modulator, MCF7-MX100; assay type: cell-based, human
MCF7 = test: Cell proliferation assay without modulator, MCF7; assay type: cell-based; conditions: Homo sapiens, read-out: IC50 of anticancer drug, wild type MCF7

T3 sequence (P33527 whole entry): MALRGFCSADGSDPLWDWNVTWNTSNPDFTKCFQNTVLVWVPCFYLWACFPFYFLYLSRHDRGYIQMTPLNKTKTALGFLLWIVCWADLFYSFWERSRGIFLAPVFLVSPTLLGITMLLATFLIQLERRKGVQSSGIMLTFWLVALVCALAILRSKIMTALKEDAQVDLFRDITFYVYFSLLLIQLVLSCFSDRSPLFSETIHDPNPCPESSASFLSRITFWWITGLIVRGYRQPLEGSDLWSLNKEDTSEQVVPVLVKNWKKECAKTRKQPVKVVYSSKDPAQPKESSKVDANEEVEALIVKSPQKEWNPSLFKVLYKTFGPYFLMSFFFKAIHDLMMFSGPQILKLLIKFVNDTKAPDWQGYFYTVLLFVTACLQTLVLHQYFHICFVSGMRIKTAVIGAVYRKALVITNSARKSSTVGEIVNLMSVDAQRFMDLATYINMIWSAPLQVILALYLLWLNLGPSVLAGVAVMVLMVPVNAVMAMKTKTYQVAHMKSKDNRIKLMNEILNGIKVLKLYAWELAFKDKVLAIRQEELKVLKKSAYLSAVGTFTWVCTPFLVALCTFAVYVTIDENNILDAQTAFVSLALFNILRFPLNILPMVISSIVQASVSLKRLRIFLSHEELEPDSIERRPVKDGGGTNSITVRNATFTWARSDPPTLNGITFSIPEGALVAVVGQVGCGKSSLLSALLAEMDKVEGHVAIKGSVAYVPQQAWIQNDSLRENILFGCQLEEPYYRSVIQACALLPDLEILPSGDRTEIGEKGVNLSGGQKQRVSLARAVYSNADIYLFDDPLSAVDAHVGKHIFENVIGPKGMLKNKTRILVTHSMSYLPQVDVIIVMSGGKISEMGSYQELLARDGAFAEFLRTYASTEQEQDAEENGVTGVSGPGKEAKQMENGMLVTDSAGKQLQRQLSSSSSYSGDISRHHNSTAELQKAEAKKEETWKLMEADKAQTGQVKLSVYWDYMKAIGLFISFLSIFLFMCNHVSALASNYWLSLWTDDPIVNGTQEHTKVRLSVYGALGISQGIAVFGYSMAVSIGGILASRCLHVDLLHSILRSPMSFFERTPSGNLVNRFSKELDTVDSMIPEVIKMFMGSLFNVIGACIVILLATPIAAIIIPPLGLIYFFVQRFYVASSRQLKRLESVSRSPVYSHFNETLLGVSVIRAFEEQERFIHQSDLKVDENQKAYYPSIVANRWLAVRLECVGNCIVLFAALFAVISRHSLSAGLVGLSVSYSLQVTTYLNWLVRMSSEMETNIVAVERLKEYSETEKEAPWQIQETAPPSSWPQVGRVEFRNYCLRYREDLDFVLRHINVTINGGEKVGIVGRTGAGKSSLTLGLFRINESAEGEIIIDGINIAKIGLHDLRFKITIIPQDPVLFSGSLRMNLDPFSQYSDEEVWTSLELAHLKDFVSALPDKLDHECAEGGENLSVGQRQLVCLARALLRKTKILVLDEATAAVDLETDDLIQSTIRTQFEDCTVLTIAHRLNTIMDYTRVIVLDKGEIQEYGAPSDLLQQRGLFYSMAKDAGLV
T2 sequence (P08183 whole entry): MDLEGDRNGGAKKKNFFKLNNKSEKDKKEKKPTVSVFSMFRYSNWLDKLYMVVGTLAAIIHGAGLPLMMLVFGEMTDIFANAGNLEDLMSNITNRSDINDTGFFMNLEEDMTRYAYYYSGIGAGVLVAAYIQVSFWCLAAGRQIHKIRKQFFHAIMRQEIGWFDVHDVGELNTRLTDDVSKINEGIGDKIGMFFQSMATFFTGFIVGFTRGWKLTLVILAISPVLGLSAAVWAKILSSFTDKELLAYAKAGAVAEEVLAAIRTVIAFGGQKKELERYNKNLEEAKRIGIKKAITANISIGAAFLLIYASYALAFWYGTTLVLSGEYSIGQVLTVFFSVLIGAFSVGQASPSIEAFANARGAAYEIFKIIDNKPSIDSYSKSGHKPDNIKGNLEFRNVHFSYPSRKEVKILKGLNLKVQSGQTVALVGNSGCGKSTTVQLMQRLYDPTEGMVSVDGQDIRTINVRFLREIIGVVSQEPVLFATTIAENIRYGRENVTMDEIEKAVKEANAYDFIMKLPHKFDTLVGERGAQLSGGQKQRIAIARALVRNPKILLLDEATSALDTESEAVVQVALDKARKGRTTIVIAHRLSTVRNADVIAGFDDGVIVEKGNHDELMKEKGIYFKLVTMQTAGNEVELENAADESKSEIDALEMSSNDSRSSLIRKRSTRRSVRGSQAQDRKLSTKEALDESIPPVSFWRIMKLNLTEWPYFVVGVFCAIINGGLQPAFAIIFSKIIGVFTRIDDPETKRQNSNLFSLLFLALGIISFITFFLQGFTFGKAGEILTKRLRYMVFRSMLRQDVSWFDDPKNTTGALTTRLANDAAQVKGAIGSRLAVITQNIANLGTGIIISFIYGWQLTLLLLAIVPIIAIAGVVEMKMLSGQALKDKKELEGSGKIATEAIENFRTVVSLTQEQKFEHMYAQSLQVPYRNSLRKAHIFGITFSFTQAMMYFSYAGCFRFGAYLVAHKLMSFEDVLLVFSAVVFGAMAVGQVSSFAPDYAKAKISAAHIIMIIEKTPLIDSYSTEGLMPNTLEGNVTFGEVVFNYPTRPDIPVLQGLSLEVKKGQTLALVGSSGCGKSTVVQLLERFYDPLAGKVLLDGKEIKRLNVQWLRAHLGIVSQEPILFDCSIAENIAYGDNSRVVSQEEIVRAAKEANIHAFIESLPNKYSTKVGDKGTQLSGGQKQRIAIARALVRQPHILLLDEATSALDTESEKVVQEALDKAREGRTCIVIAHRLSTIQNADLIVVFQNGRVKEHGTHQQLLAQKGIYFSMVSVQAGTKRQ

For `Cc1ccc2oc(-c3ccc(OCCCCc4cn(CCOCCOCCOc5ccc(-c6cc(=O)c7ccccc7o6)cc5)nn4)cc3)cc(=O)c2c1` [Ac5Az2, 6-Methyl-2-(4-(4-(1-(2-(2-(2-(4-(4-oxo-4H-chromen-2-yl)phenoxy)ethoxy)ethoxy)ethyl)-1H-1,2,3-triazol-4-yl)butoxy)phenyl)-4H-chromen-4-one], the “Selectivity for ABC transporters (P-gp, MRP1, BCRP)” value (from here on “Selectivity … (P-gp, MRP1, BCRP)”) [1] was “mono-MRP1 selectivity” and the “Relative fold (RF), BCRP-modulating activity” value (shortened to “Relative fold (RF)”) (BCRP [2]) was 13.5.

For `Cc1ccc2oc(-c3ccc(OCCCCc4cn(CCOCCOCCOc5ccc6c(=O)cc(-c7ccccc7)oc6c5)nn4)cc3)cc(=O)c2c1` [Ac5Az12, 6-Methyl-2-(4-(4-(1-(2-(2-(2-((4-oxo-2-phenyl-4H-chromen-7-yl)oxy)ethoxy)ethoxy)ethyl)-1H-1,2,3-triazol-4-yl)butoxy)phenyl)-4H-chromen-4-one], the “Selectivity … (P-gp, MRP1, BCRP)” value [1] was “mono-BCRP selectivity”, the “Paclitaxel resistance of LCC6MDR Therapeutic index” value (P-gp [3]) was over 709.2 and the IC50 at 5 days (in vitro) was over 100 µM. For the same compound, the EC50 (P-gp [4]) was 0.141 ± 0.001 µM, the “DOX resistance of 2008/MRP1 Therapeutic index” value (MRP1 [5]) was over 759.3 and the “Topotecan resistance of MCF7-MX100 Therapeutic index” value (BCRP [6]) was over 1600.0. The “Vincristine resistance of 2008/MRP1 Therapeutic index” value (MRP1 [7]) was over 1081.1.

In the case of `Cc1ccc2oc(-c3ccc(OCCOCCOCCn4cc(CCCCOc5ccc6c(=O)cc(-c7ccccc7)oc6c5)nn4)cc3)cc(=O)c2c1` [Ac12Az3, 6-Methyl-2-(4-(2-(2-(2-(4-(4-((4-oxo-2-phenyl-4H-chromen-7-yl)oxy)butyl)-1H-1,2,3-triazol-1-yl)ethoxy)ethoxy)ethoxy)phenyl)-4H-chromen-4-one], the “Selectivity … (P-gp, MRP1, BCRP)” value [1] is reported as “multi-selectivity towards P-gp, MRP1 and BCRP transporters”, the “Paclitaxel resistance of LCC6MDR Therapeutic index” value (P-gp [3]) is reported as over 263.2 and the IC50 at 5 days (in vitro) is reported as over 50 µM. The EC50 (P-gp [4]) was 0.19 µM, the “DOX resistance of 2008/MRP1 Therapeutic index” value (MRP1 [5]) was over 333.8 and the “Vincristine resistance of 2008/MRP1 Therapeutic index” value (MRP1 [7]) was over 613.5.

`COc1cccc2c1C(=O)c1c(O)c3c(c(O)c1C2=O)C[C@@](O)(C(=O)CO)C[C@@H]3O[C@H]1C[C@H](N)[C@H](O)[C@H](C)O1` [DOX] gave an IC50 (2008/P cells) of 0.0501 ± 0.0039 µM, an IC50 (2008/MRP1; Homo sapiens, 2008/MRP1, read-out: IC50 of anticancer drug, 2008/MRP1, without modulator) of 0.42 ± 0.0174 µM and an IC50 (2008/MRP1; read-out: IC50 of anticancer drug, 2008/MRP1, without modulator) of 0.413 µM. For the same compound, the “fold more resistance of 2008/MRP1 than parental 2008/P” value (2008/MRP1; without modulator) was “about 8.4 fold”.

For `COc1ccc2c3c([nH]c2c1)[C@H](CC(C)C)N1C(=O)[C@H](CCC(=O)OC(C)(C)C)NC(=O)[C@@H]1C3` [Ko143], the IC50 (L929 cells) was 29 µM and 29.2 µM.

`C/C=C/C[C@@H](C)C(=O)[C@H]1C(=O)N[C@@H](C(C)C)C(=O)N(C)CC(=O)N(C)[C@@H](CC(C)C)C(=O)N[C@@H](C(C)C)C(=O)N(C)[C@@H](CC(C)C)C(=O)N[C@@H](C)C(=O)N[C@H](C)C(=O)N(C)[C@@H](CC(C)C)C(=O)N(C)[C@@H](CC(C)C)C(=O)N(C)[C@@H](C(C)C)C(=O)N1C` [PSC833] gave an IC50 at 5 days [8] of over 100 µM.

With `CC(=O)O[C@H]1C(=O)[C@@]2(C)[C@H]([C@H](OC(=O)c3ccccc3)[C@]3(O)C[C@H](OC(=O)[C@H](O)[C@@H](NC(=O)c4ccccc4)c4ccccc4)C(C)=C1C3(C)C)[C@]1(OC(C)=O)CO[C@@H]1C[C@@H]2O` [paclitaxel] the “fold greater resistance of LCC6MDR than parental LCC6 cells” value (LCC6MDR) was “about 99.2 fold”, the IC50 (LCC6MDR; Homo sapiens, LCC6MDR, read-out: IC50 of anticancer drug, LCC6MDR) was 0.159 ± 0.0061 µM and the IC50 (LCC6 cells) was 0.0016 ± 0.0003 µM.

In the case of `Cc1ccc2oc(-c3ccc(OCCCCc4cnnn4CCOCCOc4ccc(-c5cc(=O)c6ccccc6o5)cc4)cc3)cc(=O)c2c1` [syn-Ac5Az1, 6-Methyl-2-(4-(4-(1-(2-(2-(4-(4-oxo-4H-chromen-2-yl)phenoxy)ethoxy)ethyl)-1H-1,2,3-triazol-5-yl)butoxy)phenyl)-4H-chromen-4-one], the “Relative fold (RF)” value (BCRP [2]) is reported as 11.6.

In the case of `Cc1ccc2oc(-c3ccc(OCCCCc4cnnn4CCOCCOCCOc4ccc(-c5cc(=O)c6ccccc6o5)cc4)cc3)cc(=O)c2c1` [syn-Ac5Az2, 6-Methyl-2-(4-(4-(1-(2-(2-(2-(4-(4-oxo-4H-chromen-2-yl)phenoxy)ethoxy)ethoxy)ethyl)-1H-1,2,3-triazol-5-yl)butoxy)phenyl)-4H-chromen-4-one], the “MRP1 inhibitory activity of syn-isomer compared with anti-isomer” value (MRP1 [5]; syn vs anti triazole regioisomer) is reported as “poorer MRP1 inhibitory activity than the anti-isomer Ac5Az2” and the “Relative fold (RF)” value (BCRP [2]) is reported as 9.3.

For `CC[C@@]1(O)C(=O)OCc2c1cc1n(c2=O)Cc2cc3c(CN(C)C)c(O)ccc3nc2-1` [topotecan], the IC50 (HEK293/R2) was 0.508 ± 0.0311 µM, the IC50 [9] was 0.0158 ± 0.0015 µM and the “fold more resistance of MCF7-MX100 than wild type MCF7” value (MCF7-MX100) was “about 104.4 fold”. For the same compound, the IC50 (MCF7-MX100; Homo sapiens, MCF7/MX100, read-out: IC50 of anticancer drug, MCF7-MX100) was 33.4 ± 2.1 µM and the IC50 (MCF7) was 0.32 ± 0.07 µM.
